# Measured values as given in patent publication US20130142815A1, “ALPHA-METHYL-TRYPTOPHAN AS AN INHIBITOR OF INDOLEAMINE DIOXYGENASE” (Georiga Health Sciences Univ. Research Inst., Inc., priority 2010, published 2013).
# Tests used:
# [1] = molecular target: T1, indoleamine dioxygenase (IDO) (Mus musculus, UniProt P28776); test: Cell-free IDO inhibition assay with mouse intestinal mucosal lysates as the source of IDO; type: biochemical
# T1 construct: mouse intestinal mucosal lysates were used as the source of IDO in a cell-free assay system; from tissue; host or cells: mouse intestinal mucosa (lysate)
# Excerpt: FIG. 1 presents the comparative potencies of D-, L-, and DL-isomers of 1-methyltryptophan (1-MT) and alpha-methyltryptophan (alpha-MT) for inhibition of indoleamine dioxygenase (IDO). […] In these studies, mouse intestinal mucosal lysates were used as the source of IDO in a cell-free assay system. Thus, α-MLT will produce anti-cancer effects in vivo by two different, but synergistic, mechanisms. It will block the transport function of ATB^0,+ in tumor cells, thus preventing entry of essential amino acids and glutamine, and consequently causing growth arrest and apoptosis.
# ATB0,+ [2] = molecular target: T2, ATB0,+ (Homo sapiens, UniProt Q9UN76); test: Inward currents in ATB0,+-expressing Xenopus oocytes; type: cell-based; parameters: expressed in transfected cells; host or cells: Xenopus oocytes
# T2 sequence (Q9UN76 1-642): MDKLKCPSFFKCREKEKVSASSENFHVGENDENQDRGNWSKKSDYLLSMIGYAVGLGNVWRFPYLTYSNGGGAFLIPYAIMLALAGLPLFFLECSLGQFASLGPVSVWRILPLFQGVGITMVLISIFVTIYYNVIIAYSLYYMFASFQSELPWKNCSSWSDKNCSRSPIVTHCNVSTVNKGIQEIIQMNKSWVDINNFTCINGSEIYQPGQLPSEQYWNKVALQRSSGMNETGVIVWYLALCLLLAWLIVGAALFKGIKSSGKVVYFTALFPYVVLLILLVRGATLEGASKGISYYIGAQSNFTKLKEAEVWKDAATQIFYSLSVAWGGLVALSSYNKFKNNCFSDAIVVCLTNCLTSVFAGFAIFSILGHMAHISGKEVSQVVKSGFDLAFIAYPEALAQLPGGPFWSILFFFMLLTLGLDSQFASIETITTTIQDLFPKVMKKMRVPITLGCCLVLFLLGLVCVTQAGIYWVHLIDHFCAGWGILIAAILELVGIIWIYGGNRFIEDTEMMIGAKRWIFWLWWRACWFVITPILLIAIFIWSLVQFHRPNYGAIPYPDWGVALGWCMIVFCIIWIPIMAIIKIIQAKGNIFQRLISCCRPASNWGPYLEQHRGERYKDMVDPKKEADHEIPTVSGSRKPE
# Excerpt: Tryptophan is a substrate for ATB^0,+. […] Inhibition of glycine uptake could occur because α-MT is a transportable substrate for ATB^0,+ thus competing with glycine for the uptake process, or because it blocks the transporter without itself being transported. The Xenopus oocyte expression system can differentiate between these two modes of inhibition because transportable substrates would induce inward currents whereas blockers would not.
# Next, the potency of α-MT to block the transporter under conditions that simulate those in vivo was determined (with all naturally occurring amino acids present at physiologic concentrations). ATB^0,+ accepts all proteinogenic amino acids except glutamate and aspartate. Therefore, using the Xenopus oocyte expression system, the transport activity of human ATB^0,+ was monitored in the presence of an amino acid mixture consisting of all proteinogenic amino acids, each at its respective physiologic concentration found in plasma. Inward currents were detected under these conditions in oocytes expressing human ATB^0,+. α-MT blocked the ATB^0,+-mediated inward currents in the presence of these amino acids. The inhibition was dose-dependent; the concentration of the blocker necessary to elicit 50% maximal inhibition was 255±24 μM (Karunakaran et al., 2008, Biochem J; 414: 343-355).
# Although α-methyl-DL-tryptophan is a blocker of ATB^0,+, its potency is weak. […] The only commercially available α-methyltryptophan is the DL-form. Thus, an optical resolution method was developed to separate the L-isomer from the DL-form (FIG. 2). With this method, the L- and D-isomers of this compound were purified. The potencies of the two isomers as a blocker of ATB^0,+ was examined in Xenopus oocytes using the amino acid mixture simulating the plasma. The concentration of the L-isomer to elicit 50% maximal inhibition was 18±5 μM. This value is 14 times less than the corresponding value for the DL-form. With the D-isomer, the inhibition never increased beyond 40% even at 1 mM.
# ZR75.1 cells = test: Mouse xenograft, ZR75.1 ER-positive breast cancer cell line; type: in vivo; conditions: in drinking water (2 mg/ml)
# Experimental: (§1) Mouse xenograft studies were performed with two ER-positive breast cancer cell lines (ZR75.1 and MCF7) and one ER-negative breast cancer cell line (MB231). […] Plasma concentration of alpha-methyltryptophan in mice after two weeks of administration in drinking water was […] was not detectable in control mice.
# MCF7 cells = test: Mouse xenograft, MCF7 ER-positive breast cancer cell line; type: in vivo; conditions: in drinking water (2 mg/ml); in the presence of estrogen administration
# Experimental: as §1
# MB231 cells = test: Mouse xenograft, MB231 ER-negative breast cancer cell line; type: in vivo; conditions: in drinking water (2 mg/ml)
# Experimental: as §1
# mouse colon cancer cells = test: Mouse model of colon cancer, subcutaneous injection of mouse colon cancer cells; type: in vivo
# Experimental: Further, alpha-methyltryptophan was administered in a mouse model of colon cancer. Following subcutaneous injection of mouse colon cancer cells into mice, mice were treated with alpha-methyltryptophan, either in drinking water or by intraperintoneal injection.
# ATB0,+ [3] = molecular target: T2, ATB0,+; conditions: cited from earlier work
# ATB0,+ [4] = molecular target: T2, ATB0,+; parameters: expressed in transfected cells; host or cells: Xenopus oocytes; conditions: tells transportable substrate from blocker; cited from earlier work
# IDO in DCs = molecular target: T3, IDO in DCs (Mus musculus, UniProt P28776); test: Mixed lymphocyte reaction: suppression of CD8+ T cell proliferation by IDO-positive DCs, [3H]thymidine incorporation; type: cell-based
# T3 construct: endogenous in cells; host or cells: CD11c+ dendritic cells from a CpG 1826-treated C57Bl6 mouse
# Experimental: This example complements the cell-free in vitro measurements of IDO activity shown in Example 1 with a functional assay involving T cell proliferation. In this assay, CD8^+ T cells from a transgenic mouse (01.1) which carries the T-cell receptor specific for the ovalbumin peptide antigen Ser-Ile-Ile-Asn-Phe-Glu-Lys-Leu (SIINFEKL) were used. CD11c^+ dendritic cells (DCs) were also prepared from a C57B16 mouse that has been given CpG 1826 intravenously to induce IDO in DCs. A mixed lymphocyte reaction was then performed in which the ability of IDO-positive DCs to suppress the proliferation of CD8^+ T cells was monitored using [^3H]thymidine incorporation as the read-out. Thymidine incorporation in these T cells in the absence of DCs was taken as the control. When the T cells were cultured in the presence of IDO-positive DCs (10^5 cells), thymidine incorporation in T cells was suppressed by 63±3%. […] It is important to note that the concentration of α-MLT needed to inhibit IDO in DCs in this cell-based ex-vivo assay system (0.2 μM) is almost two orders of magnitude less than the IC50 observed for the inhibition of IDO in the cell-free assay system (˜20 μM). Based on these findings, it is expected that α-MLT will function as an anti-cancer agent in vivo by acting through two different mechanisms. […]
# T1 sequence (P28776 whole entry): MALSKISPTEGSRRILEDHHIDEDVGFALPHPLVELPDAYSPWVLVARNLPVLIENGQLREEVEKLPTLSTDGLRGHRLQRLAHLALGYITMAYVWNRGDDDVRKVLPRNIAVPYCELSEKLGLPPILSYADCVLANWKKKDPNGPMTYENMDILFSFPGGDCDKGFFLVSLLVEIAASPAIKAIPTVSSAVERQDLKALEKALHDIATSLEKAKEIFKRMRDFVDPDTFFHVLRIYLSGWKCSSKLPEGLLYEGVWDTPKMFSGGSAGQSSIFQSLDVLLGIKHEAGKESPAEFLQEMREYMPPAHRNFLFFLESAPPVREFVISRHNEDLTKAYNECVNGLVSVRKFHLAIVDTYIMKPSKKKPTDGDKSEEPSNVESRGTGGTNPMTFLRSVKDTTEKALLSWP
# T3 sequence (P28776 whole entry): as above
compound,measurement,setting,value
"C[C@](N)(Cc1c[nH]c2ccccc12)C(=O)O [α-MLT, α-methyl-L-tryptophan]","potency as an IDO inhibitor (comparison, FIG. 1)",[1],significantly more potent than the D-isomer
same,"potency as a blocker of ATB0,+ (in words)","ATB0,+ [2]",more potent than α-methyl-D-tryptophan
same,times less than the corresponding value for the DL-form,"ATB0,+ [2]; 50% maximal inhibition concentration, L-isomer vs DL-form",14 times
CC(N)(Cc1c[nH]c2ccccc12)C(=O)O (racemic) [α-methyl-DL-tryptophan],"potency as an IDO inhibitor (comparison, FIG. 1)",[1],significantly greater than that of 1-methyltryptophan
same,growth of ZR75.1 cells in xenograft,ZR75.1 cells,reduced growth
same,growth of MCF7 cells in xenograft,MCF7 cells,did not effect the growth
same,growth of MB231 cells in xenograft,MB231 cells,did not effect the growth
same,reduction of tumor growth,mouse colon cancer cells; in drinking water,approximately 50%
same,reduction of tumor growth,mouse colon cancer cells; intraperitoneal injection,approximately 50%
same,"effect on ATB0,+-mediated glycine uptake","ATB0,+ [3]",inhibited
same,"potency as a blocker of ATB0,+ (in words)","ATB0,+ [2]",weak
same,"induction of inward currents in ATB0,+-expressing Xenopus oocytes","ATB0,+ [4]",did not induce inward currents
α-methyl-L-tryptophan [α-MLT],IC50,[1]; read-out: IC50 observed for the inhibition of IDO in the cell-free assay system,~20 µM
same,reversal of suppression of thymidine incorporation in T cells by IDO-positive DCs,"IDO in DCs; 0.2 μM, IDO-positive DCs (10^5 cells)",completely reversed
same,concentration needed to inhibit IDO in DCs in cell-based ex-vivo assay system,IDO in DCs; cell-based ex-vivo assay,0.2 µM
"C[C@@](N)(Cc1c[nH]c2ccccc12)C(=O)O [D-isomer, α-methyl-D-tryptophan]",inhibition at 1000 µM,"ATB0,+ [2]; even at 1 mM, Xenopus oocytes, amino acid mixture simulating the plasma",≤ 40%
